One test relates to Colo320DM cells. Nature of the test: In vitro cytotoxicity, Alamar Blue assay, Colo320DM control cell line (does not express free PSA). The conditions noted are these: 72 HRS. Format: cell-based. As to the method:
(§1) In vitro Assay of Cytotoxicity of Peptidyl Derivatives of Vinca Drugs
(§2) The cytotoxicities of the cleaveable oligopeptide-vinca drug conjugates, prepared as described in Example 3, against a line of cells which is known to be killed by unmodified vinca drug was assessed with an Alamar Blue assay. Specifically, cell cultures of LNCap prostate tumor cells, Colo32ODM cells (designated C320) or T47D cells in 96 well plates was diluted with medium containing various concentrations of a given conjugate (final plate well volume of 200 μl). […] The cells were incubated for 3 days at 37° C., 20 μl of Alamar Blue is added to the assay well. The cells were further incubated and the assay plates were read on a EL-310 ELISA reader at the dual wavelengths of 570 and 600 nm at 4 and 7 hours after addition of Alamar Blue. Relative percentage viability at the various concentration of conjugate tested was then calculated versus control (no conjugate) cultures and an EC50 was determined. Unless otherwise indicated, the acetate salt of the conjugate was tested.

For another test, the target named is T1, free PSA (York PSA) (Homo sapiens, UniProt P07288).
T1 construct: purchased York ('York PSA')
Nature of the test: Recognition of oligopeptide-vinca drug conjugates by free PSA (time to 50% cleavage, HPLC). The test is classed as biochemical. The settings on record: for Time to 50% Substrate Cleavage by York PSA: conjugate to PSA molar ratio 100 to 1, pH 7.4. How it is done:
The reaction was quenched after various reaction times by the addition of trifluoroacetic acid (TFA) to a final 1% (volume/volume). Alternatively the reaction is quenched with 10 mM ZnCl2. The quenched reaction was analyzed by HPLC on a reversed-phase C18 column using an aqueous 0.1%TFA/acetonitrile gradient. The amount of time (in minutes) required for 50% cleavage of the noted oligopeptide-cytotoxic agent conjugates with enzymatically active free PSA were then calculated.

For test [1], the system named is LNCaP prostate tumor cells. Nature of the test: In vitro cytotoxicity, Alamar Blue assay, LNCaP cell kill. Format: cell-based. The settings on record: 72 HRS. How it is done:
as §1
as §2, with “Specifically,” for “The cytotoxicities of the cleaveable oligopeptide-vinca drug conjugates, prepared as described in Example 3, against a line of cells which is known to be killed by unmodified vinca drug was assessed with an Alamar Blue assay. Specifically,”

Where [2] appears, read: second part of Table 2, read-out: Colo320DM EC 50.
The mark [3] stands for this setting: second part of Table 2, read-out: LNCaP Cell Kill in 72 HRS. {48 HRS} EC 50.
Where [4] appears, read: read-out: LNCaP Cell Kill in 72 HRS. {48 HRS} EC 50.

Read-outs that look alike come from different tables or passages of the source.

T1 sequence (P07288 25-261): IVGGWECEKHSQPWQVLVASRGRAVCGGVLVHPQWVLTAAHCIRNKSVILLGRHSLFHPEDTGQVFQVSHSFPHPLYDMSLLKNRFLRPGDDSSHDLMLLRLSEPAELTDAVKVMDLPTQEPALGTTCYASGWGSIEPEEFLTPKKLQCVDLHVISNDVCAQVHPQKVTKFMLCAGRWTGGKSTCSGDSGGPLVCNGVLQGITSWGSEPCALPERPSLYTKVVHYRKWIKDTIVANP

For the substance “4-O-[Ac-4-trans-L-HypSSChgQSS-Pip]-dAc-VIN: peptide-vinca drug conjugate, SEQ ID NO 124 (XSSXQSSX; N-acetyl; desacetylvinblastine conjugate)”, the EC50 amounted to 60 µM in the test with Colo320DM cells (setting [2]) and 7.5 µM in test [1] (setting [3]). In addition, the “Time to 50% Substrate Cleavage by York PSA” value in the test with free PSA (York PSA) came to 13 min.

Consider “4-O-((2-OH)Ac-Abu-SSChgQ-S-P)-dAc-VIN: peptide-vinca drug conjugate, SEQ ID NO 91 (XSSXQSP; N-hydroxyacetyl; desacetylvinblastine conjugate)”, for which the EC50 with Colo320DM cells (read-out: Colo320DM EC 50) was 52.5 µM; in test [1] (setting [4]) it was 11.9 µM. In addition, the “Time to 50% Substrate Cleavage by York PSA” value with free PSA (York PSA) was 110 min.

For “des-Acetylvinblastine-4-O-(N-Acetyl-4-trans-L-Hyp-Ser-Ser Chg-Gln-Ser-Ser-Pro) ester acetate (XSSXQSSP; N-acetyl; desacetylvinblastine ester; acetate salt)”, the EC50 in the test on Colo320DM cells (read-out: Colo320DM EC 50) was determined as 12 µM; in test [1] (setting [4]) it was 3 µM. Moreover, in the test with free PSA (York PSA), the “Time to 50% Substrate Cleavage by York PSA” value amounted to 17 min.

Turning to “4-O-(Ac-4-trans-L-HypSSChgQSS-Sar)-(dAc)-VIN: peptide-vinca drug conjugate, printed under SEQ ID NO 86 and 105 (XSSXQSSG; N-acetyl; desacetylvinblastine conjugate)”, the EC50 came out at 13 µM with Colo320DM cells (read-out: Colo320DM EC 50), 12 µM with Colo320DM cells (setting [2]), 4.1 µM in test [1] (setting [4]) and 12 µM in test [1] (setting [3]). Also, the results for the “Time to 50% Substrate Cleavage by York PSA” value in the test with free PSA (York PSA) and with free PSA (York PSA) (listed as Ac-4-trans-L-HypSSChgQSS-(4-O-Sar)-(dAc)-VIN) were 32 min and 15 min, respectively.

As to “4-O-(Ac-4-trans-L-HypSSChgQSV-glycolyl)-VIN: peptide-vinca drug conjugate, SEQ ID NO 88 (XSSXQSV; N-acetyl; glycolyl linker; vinblastine conjugate)”, the EC50 with Colo320DM cells (read-out: Colo320DM EC 50) was 8.1 µM; in test [1] (setting [4]), 4.1 µM. In addition, the “Time to 50% Substrate Cleavage by York PSA” value with free PSA (York PSA) is 8 min.

As to “4-O-(Ac-4-trans-L-HypSSChgQSV-lactyl)-dAc-VIN: peptide-vinca drug conjugate, SEQ ID NO 94”, the EC50 stood at 8.1 µM with Colo320DM cells (read-out: Colo320DM EC 50) and 3.1 µM in test [1] (setting [4]). In addition, the “Remark printed with the cleavage time (stability of conjugate / fate of product)” value with free PSA (York PSA) (PSA digestion) is recorded as “stable”. Also, in the test with free PSA (York PSA), the “Time to 50% Substrate Cleavage by York PSA” value was determined as 7 min.

As to “4-O-(Ac-3-Pal-SSChgQS-P)-dAc-VIN: peptide-vinca drug conjugate, SEQ ID NO 92”, the EC50 in the test with Colo320DM cells (read-out: Colo320DM EC 50) came out at 8 µM; in test [1] (setting [4]), 5.8 µM. For the same substance, the “Time to 50% Substrate Cleavage by York PSA” value with free PSA (York PSA) turned out to be 80 min.

Turning to “4-O-[Ac-4-trans-L-HypSSChg(dQ)SSP]-dAc-VIN: peptide-vinca drug conjugate, SEQ ID NO 114 (XSSXXSSP; N-acetyl; D-Gln; desacetylvinblastine conjugate)”, the values for the EC50 (in the test with Colo320DM cells (setting [2]); in test [1] (setting [3])) were 43.7 µM and 12.2 µM, respectively. In addition, the “Substrate cleavage by York PSA, 10 X ENZ o/n” value with free PSA (York PSA) (10 X ENZ, o/n) was found to be 0%.

“4-O-(Ac-4-trans-L-HypSSChgQSS-(d)-Pro)-(dAc)-VIN: peptide-vinca drug conjugate, SEQ ID NO 87 (XSSXQSSP; N-acetyl; D-Pro; desacetylvinblastine conjugate)”: the EC50 was found to be 8.1 µM in the test with Colo320DM cells (read-out: Colo320DM EC 50) and 4.1 µM in test [1] (setting [4]). Besides, the “Substrate cleavage by York PSA after 1 HOUR” value in the test with free PSA (York PSA) (1 HOUR) stood at 34%.

For the origin of these results see US6174858A, “Conjugates useful in the treatment of prostate cancer” (Merck & Co., Inc., priority 1998, dated 2001).
